Our source for the IC50 values is patent publication US20180155344A1, “TRICYCLIC PIPERIDINE COMPOUNDS” (ACTELION PHARMACEUTICALS LTD, priority 2015, published 2018).

The target in one test is T1, human TPH1 (Homo sapiens, UniProt P17752).
T1 sequence (P17752 1-444): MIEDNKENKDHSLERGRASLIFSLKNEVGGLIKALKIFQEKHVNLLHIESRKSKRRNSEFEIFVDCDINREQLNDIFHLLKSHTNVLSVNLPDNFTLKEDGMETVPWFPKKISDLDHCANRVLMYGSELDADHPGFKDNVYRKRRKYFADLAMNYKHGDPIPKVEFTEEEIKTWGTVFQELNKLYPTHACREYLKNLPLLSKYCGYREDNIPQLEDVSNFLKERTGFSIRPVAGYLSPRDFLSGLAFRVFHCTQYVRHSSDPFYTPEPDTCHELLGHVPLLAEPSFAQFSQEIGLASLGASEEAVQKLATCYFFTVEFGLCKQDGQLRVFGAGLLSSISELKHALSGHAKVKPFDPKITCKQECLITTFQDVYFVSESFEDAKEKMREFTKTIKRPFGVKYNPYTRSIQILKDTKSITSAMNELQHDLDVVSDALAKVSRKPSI
The test is described as follows: biochemical.
Settings: not given
Summed up:
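Inhibition is derived from 5-hydroxy-L-tryptophan fluorescence (540 nm emission, 300 nm excitation) after perchloric acid stop, relative to DMSO vehicle. Recombinant full-length human enzyme (40-80 nM) reacts with 40 μM tryptophan plus 100 μM methyltetrahydropterin, pH 7.6 Tris/DTT/catalase, 15° C, 60 min.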
With `Cn1nc(OCC(=O)N2CCc3nc4cc(C(F)(F)F)ccn4c3C2c2ccc(Cl)cc2F)c(Cl)c1C(F)(F)F` (stereo not shown) [Example 3.4.3, 2-((4-chloro-1-methyl-5-(trifluoromethyl)-1H-pyrazol-3-yl)oxy)-1-(1-(4-chloro-2-fluorophenyl)-7-(trifluoromethyl)-3,4-dihydroimidazo[1,2-a:5,4-c′]dipyridin-2(1H)-yl)ethan-1-one], the midpoint of inhibition, the IC50, lay at 64 nM.

Turning to `O=C(COc1ccc(N2CCOCC2)nc1Cl)N1CCc2nc3ccccn3c2C1c1ccc(Cl)nc1F` (stereo not shown) [Example 1.11.1, 1-(1-(6-chloro-2-fluoropyridin-3-yl)-3,4-dihydroimidazo[1,2-a:5,4-c′]dipyridin-2(1H)-yl)-2-((2-chloro-6-morpholinopyridin-3-yl)oxy)ethan-1-one], the IC50 came out at 7 nM.

For the compound `CN(CC(F)(F)F)c1ccc(OCC(=O)N2CCc3nc4ccccn4c3C2c2ccc(Cl)cc2F)c(Cl)n1` (stereo not shown) [Example 1.4.11, 1-(1-(4-chloro-2-fluorophenyl)-3,4-dihydroimidazo[1,2-a:5,4-c′]dipyridin-2(1H)-yl)-2-((2-chloro-6-(methyl(2,2,2-trifluoroethyl)amino)pyridin-3-yl)oxy)ethan-1-one], the IC50 stood at 14 nM.

`Cc1ccc(C2c3c(nc4cc(C(F)(F)F)ccn34)CCN2C(=O)COc2ccc(CN3CCOCC3)cc2Cl)c(F)c1` (stereo not shown) [Example 3.22.1, 2-(2-chloro-4-(morpholinomethyl)phenoxy)-1-(1-(2-fluoro-4-methylphenyl)-7-(trifluoromethyl)-3,4-dihydroimidazo[1,2-a:5,4-c′]dipyridin-2(1H)-yl)ethan-1-one] gave a concentration for half-maximal inhibition (IC50) of 7 nM. Compared with the last compound, the IC50 is about 2-fold lower.

Consider `COc1ccc(C2c3c(nc4cc(C(F)(F)F)ccn34)CCN2C(=O)COc2ccc(OC(F)(F)F)cc2)cc1OC` (stereo not shown) [Example 3.1.11], for which the IC50 worked out at 199 nM. Against the preceding compound, the IC50 is about 28-fold higher.

`COc1ccc(C2c3c(nc4cc(C(F)(F)F)ccn34)CCN2C(=O)COc2ccc3c(c2C)CCN(C(=O)OC(C)(C)C)C3)c(F)c1` (stereo not shown) [Example 3.3.4, tert-butyl 6-(2-(1-(2-fluoro-4-methoxyphenyl)-7-(trifluoromethyl)-3,4-dihydroimidazo[1,2-a:5,4-c′]dipyridin-2(1H)-yl)-2-oxoethoxy)-5-methyl-3,4-dihydroisoquinoline-2(1H)-carboxylate] registered an IC50 of 178 nM.

For `O=C(COc1ccc2ccccc2c1)N1CCc2nc3cc(C(F)(F)F)ccn3c2C1c1ccnc(Cl)c1` (stereo not shown) [Example 3.56.1, 1-(1-(2-chloropyridin-4-yl)-7-(trifluoromethyl)-3,4-dihydroimidazo[1,2-a:5,4-c′]dipyridin-2(1H)-yl)-2-(naphthalen-2-yloxy)ethan-1-one], the IC50 was 195 nM.

As to `CS(=O)(=O)Nc1ccc(OCC(=O)N2CCc3nc4ccccn4c3C2c2ccc(OCCO)cc2F)c(Cl)n1` (stereo not shown) [Example 1.22.2, N-(6-Chloro-5-(2-(1-(2-fluoro-4-(2-hydroxyethoxy)phenyl)-3,4-dihydroimidazo[1,2-a:5,4-c′]dipyridin-2(1H)-yl)-2-oxoethoxy)pyridin-2-yl)methanesulfonamide], the IC50 was 38 nM.

Compound `COc1ccc(C2c3c(nc4ccccn34)CCN2C(=O)COc2ccc3ccccc3c2C)cc1OC` (stereo not shown) [Example 1.1.6, 1-(1-(3,4-dimethoxyphenyl)-3,4-dihydroimidazo[1,2-a:5,4-c′]dipyridin-2(1H)-yl)-2-((1-methylnaphthalen-2-yl)oxy)ethan-1-one] gave an IC50 of 12 nM.

Compound `Cc1ccc(C2c3c(nc4cc(C(F)(F)F)ccn34)CCN2C(=O)COc2cccnc2Cl)c(F)c1` (stereo not shown) [Example 3.22.2, 2-((2-chloropyridin-3-yl)oxy)-1-(1-(2-fluoro-4-methylphenyl)-7-(trifluoromethyl)-3,4-dihydroimidazo[1,2-a:5,4-c′]dipyridin-2(1H)-yl)ethan-1-one] gave a half-maximal inhibitory concentration (IC50) of 44 nM.

In turn, `CN(CCO)c1ccc(OCC(=O)N2CCc3nc4ccccn4c3C2c2ccc(Cl)cc2F)c(Cl)n1` (stereo not shown) [Example 1.4.10, 1-(1-(4-chloro-2-fluorophenyl)-3,4-dihydroimidazo[1,2-a:5,4-c′]dipyridin-2(1H)-yl)-2-((2-chloro-6-((2-hydroxyethyl)(methyl)amino)pyridin-3-yl)oxy)ethan-1-one] gave a half-maximal inhibitory concentration (IC50) of 87 nM.

The compound `COc1ccc(C2c3c(nc4ccccn34)CCN2C(=O)COc2ccc(C)cc2C)cc1OC` (stereo not shown) [Example 1.1.2, 1-(1-(3,4-dimethoxyphenyl)-3,4-dihydroimidazo[1,2-a:5,4-c′]dipyridin-2(1H)-yl)-2-(2,4-dimethylphenoxy)ethan-1-one] displayed an IC50 of 180 nM.

`COc1ccc(C2c3c(nc4ccccn34)CCN2C(=O)COc2ccc3ccccc3c2Br)cc1OC` (stereo not shown) [Example 1.1.8, 2-((1-bromonaphthalen-2-yl)oxy)-1-(1-(3,4-dimethoxyphenyl)-3,4-dihydroimidazo[1,2-a:5,4-c′]dipyridin-2(1H)-yl)ethan-1-one] yielded a half-inhibitory concentration (IC50) of 9 nM.

`O=C(COc1ccc2ccccc2c1)N1CCc2nc3cc(C(F)(F)F)ccn3c2C1c1cc2cccnc2s1` (stereo not shown) [Example 3.49.1, 2-(naphthalen-2-yloxy)-1-(1-(thieno[2,3-b]pyridin-2-yl)-7-(trifluoromethyl)-3,4-dihydroimidazo[1,2-a:5,4-c′]dipyridin-2(1H)-yl)ethan-1-one] registered an IC50 of 47 nM.

`CCOC(=O)c1cc(OCC(=O)N2CCc3nc4ccccn4c3C2c2ccc(OC)c(OC)c2)c(CC)cc1C` (stereo not shown) [Example 1.1.10, ethyl 5-(2-(1-(3,4-dimethoxyphenyl)-3,4-dihydroimidazo[1,2-a:5,4-c′]dipyridin-2(1H)-yl)-2-oxoethoxy)4-ethyl-2-methylbenzoate] displayed an IC50 of 92 nM. This IC50 is about 2-fold higher than that of the compound before.

`O=C(COc1ccc2ccccc2c1)N1CCc2nc3cc(C(F)(F)F)ccn3c2C1c1ccc2c(c1)OCCO2` (stereo not shown) [Example 3.17.1, 1-(1-(2,3-dihydrobenzo[b][1,4]dioxin-6-yl)-7-(trifluoromethyl)-3,4-dihydroimidazo[1,2-a:5,4-c′]dipyridin-2(1H)-yl)-2-(naphthalen-2-yloxy)ethan-1-one] yielded a 50% inhibitory concentration (IC50) of 138 nM.

Regarding `Cc1cc(C2c3c(nc4cc(C(F)(F)F)ccn34)CCN2C(=O)COc2ccc(CN3CCOCC3)cc2Cl)ccn1` (stereo not shown) [Example 3.57.2, 2-(2-chloro-4-(morpholinomethyl)phenoxy)-1-(1-(2-methylpyridin-4-yl)-7-(trifluoromethyl)-3,4-dihydroimidazo[1,2-a:5,4-c′]dipyridin-2(1H)-yl)ethan-1-one], the half-inhibitory concentration (IC50) was 35 nM.

`O=C(COc1ccc2ccccc2c1)N1CCc2nc3cc(C(F)(F)F)ccn3c2C1c1ccc(F)c(F)c1` (stereo not shown) [Example 3.34.1, 1-(1-(3,4-difluorophenyl)-7-(trifluoromethyl)-3,4-dihydroimidazo[1,2-a:5,4-c′]dipyridin-2(1H)-yl)-2-(naphthalen-2-yloxy)ethan-1-one] came in with an IC50 of 486 nM.

Turning to `COc1ccc(C2c3c(nc4cc(C(F)(F)F)ccn34)CCN2C(=O)COc2ccc3c(c2C)CCN(C(C)=O)C3)c(F)c1` (stereo not shown) [Example 3.3.6, 2-((2-acetyl-5-methyl-1,2,3,4-tetrahydroisoquinolin-6-yl)oxy)-1-(1-(2-fluoro-4-methoxyphenyl)-7-(trifluoromethyl)-3,4-dihydroimidazo[1,2-a:5,4-c′]dipyridin-2(1H)-yl)ethan-1-one], the IC50 was 11 nM.

On to `Cc1ccc(C2c3c(nc4cc(C(F)(F)F)ccn34)CCN2C(=O)COc2ccc3ccccc3c2)cn1` (stereo not shown) [Example 3.38.1, 1-(1-(6-methylpyridin-3-yl)-7-(trifluoromethyl)-3,4-dihydroimidazo[1,2-a:5,4-c′]dipyridin-2(1H)-yl)-2-(naphthalen-2-yloxy)ethan-1-one], for which half-maximal inhibition (IC50) was put at 26 nM. Against the preceding compound, the IC50 is about 2.4-fold higher.

`COC(=O)c1ccc(C2c3c(nc4ccccn34)CCN2C(=O)COc2ccc(C(=O)NC3CC3)nc2Cl)c(F)c1` (stereo not shown) [Example 1.15.2, methyl-4-(2-(2-((2-chloro-6-(cyclopropylcarbamoyl)pyridin-3-yl)oxy)acetyl)-1,2,3,4-tetrahydroimidazo[1,2-a:5,4-c′]dipyridin-1-yl)-3-fluorobenzoate] registered an IC50 of 49 nM.

For `CN(C)Cc1csc(C2c3c(nc4ccccn34)CCN2C(=O)COc2ccc(N3CCOCC3)nc2Cl)c1` (stereo not shown) [Example 1.7.1, 2-((2-chloro-6-morpholinopyridin-3-yl)oxy)-1-(1-(4-((dimethylamino)methyl)thiophen-2-yl)-3,4-dihydroimidazo[1,2-a:5,4-c′]dipyridin-2(1H)-yl)ethan-1-one], inhibition was half-maximal at 101 nM (IC50).

In the case of `COCc1ccc(C2c3c(nc4ccccn34)CCN2C(=O)COc2ccc(NS(C)(=O)=O)nc2Cl)c(F)c1` (stereo not shown) [Example 1.18.2, N-(6-chloro-5-(2-(1-(2-fluoro-4-(methoxymethyl)phenyl)-3,4-dihydroimidazo[1,2-a:5,4-c′]dipyridin-2(1H)-yl)-2-oxoethoxy)pyridin-2-yl)methanesulfonamide], the half-maximal inhibitory concentration (IC50) came to 40 nM.

The same test, now with this note: Table 1; full length human TPH1, 40 μM L-tryptophan, 15° C., 60 minutes; mean if determined several times.
In turn, “2-((6-(aminomethyl)-2-chloropyridin-3-yl)oxy)-1-(9-(5-cyclopropyl-3-fluoropyridin-2-yl)-6,9-dihydropyrido[4′,3′:4,5]imidazo[1,2-b]pyridazin-8(7H)-yl)ethan-1-one [Example 16.2.4]” returned an IC50 of 401 nM.

“1-(1-(4-(aminomethyl)phenyl)-7-(trifluoromethyl)-3,4-dihydroimidazo[1,2-a:5,4-c′]dipyridin-2(1H)-yl)-2-(2-chloro-4-(morpholinomethyl)phenoxy)ethan-1-one [Example 3.31.2]” came in with a concentration for half-maximal inhibition (IC50) of 145 nM.

For orientation: IC50 means the point on the concentration scale where inhibition reaches its midpoint. A high value points to weaker potency.
